The results in this text go back to publication PMC10528299, “Targeting FAK/PYK2 with SJP1602 for Anti-Tumor Activity in Triple-Negative Breast Cancer” (Current Issues in Molecular Biology, 2023).

Holding throughout (experiment): Eurofins kinase profiling
Holding throughout (type): biochemical

The target in one assay is T1, IKKε(h) (Homo sapiens, UniProt Q14164).
T1 construct: purchased Eurofins KinaseProfiler
T1 sequence (Q14164 1-716): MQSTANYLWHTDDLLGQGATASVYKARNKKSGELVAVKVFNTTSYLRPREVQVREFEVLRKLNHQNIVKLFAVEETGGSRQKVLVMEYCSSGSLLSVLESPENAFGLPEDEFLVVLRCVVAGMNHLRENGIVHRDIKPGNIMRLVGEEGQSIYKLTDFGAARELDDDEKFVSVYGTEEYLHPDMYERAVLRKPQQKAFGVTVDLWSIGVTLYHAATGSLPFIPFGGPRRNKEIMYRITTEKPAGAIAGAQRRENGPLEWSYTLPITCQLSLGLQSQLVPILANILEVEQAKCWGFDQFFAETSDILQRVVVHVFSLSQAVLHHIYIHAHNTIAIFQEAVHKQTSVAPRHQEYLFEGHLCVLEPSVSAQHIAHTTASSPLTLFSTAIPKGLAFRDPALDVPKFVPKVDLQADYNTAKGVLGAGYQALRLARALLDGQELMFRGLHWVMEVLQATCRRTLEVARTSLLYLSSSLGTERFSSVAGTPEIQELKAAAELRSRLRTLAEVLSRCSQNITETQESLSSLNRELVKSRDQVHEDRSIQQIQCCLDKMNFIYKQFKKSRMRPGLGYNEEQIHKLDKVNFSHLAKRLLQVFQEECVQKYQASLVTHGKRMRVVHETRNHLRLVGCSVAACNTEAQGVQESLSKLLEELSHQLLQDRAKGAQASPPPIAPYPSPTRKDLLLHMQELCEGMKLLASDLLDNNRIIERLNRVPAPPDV
The settings on record: read-out: residual kinase activity IKKε(h). A digest of the protocol:
(§1)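 Radiometric detection, with radiolabeled phosphate as substrate, gave the kinase activity after each enzyme was incubated with 1 µM test compound. The run belonged to a 110-assay profiling panel.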

A further assay deals with T2, ZAP-70(h) (Homo sapiens, UniProt P43403).
T2 construct: purchased Eurofins KinaseProfiler
T2 sequence (P43403 1-619): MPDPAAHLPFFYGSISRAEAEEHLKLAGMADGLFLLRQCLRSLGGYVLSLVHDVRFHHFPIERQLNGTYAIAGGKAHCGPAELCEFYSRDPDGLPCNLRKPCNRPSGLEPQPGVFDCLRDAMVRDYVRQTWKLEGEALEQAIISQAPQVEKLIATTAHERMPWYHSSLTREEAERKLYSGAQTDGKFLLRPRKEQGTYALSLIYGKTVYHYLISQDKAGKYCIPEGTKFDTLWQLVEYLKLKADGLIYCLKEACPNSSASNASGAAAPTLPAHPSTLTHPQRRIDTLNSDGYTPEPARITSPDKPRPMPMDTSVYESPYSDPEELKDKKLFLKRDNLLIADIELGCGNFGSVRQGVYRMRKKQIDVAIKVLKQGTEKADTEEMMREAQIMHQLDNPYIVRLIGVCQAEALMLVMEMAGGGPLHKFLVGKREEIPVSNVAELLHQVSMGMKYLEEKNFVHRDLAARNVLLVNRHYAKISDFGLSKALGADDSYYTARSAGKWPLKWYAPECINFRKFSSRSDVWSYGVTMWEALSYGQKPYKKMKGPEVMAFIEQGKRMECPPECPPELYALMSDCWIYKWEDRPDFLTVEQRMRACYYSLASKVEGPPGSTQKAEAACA
Particulars: read-out: residual kinase activity ZAP-70(h). A digest of the protocol: as §1

A further assay has as its target T3, LKB1(h) (Homo sapiens, UniProt Q15831).
T3 construct: purchased Eurofins KinaseProfiler
T3 sequence (Q15831 1-433): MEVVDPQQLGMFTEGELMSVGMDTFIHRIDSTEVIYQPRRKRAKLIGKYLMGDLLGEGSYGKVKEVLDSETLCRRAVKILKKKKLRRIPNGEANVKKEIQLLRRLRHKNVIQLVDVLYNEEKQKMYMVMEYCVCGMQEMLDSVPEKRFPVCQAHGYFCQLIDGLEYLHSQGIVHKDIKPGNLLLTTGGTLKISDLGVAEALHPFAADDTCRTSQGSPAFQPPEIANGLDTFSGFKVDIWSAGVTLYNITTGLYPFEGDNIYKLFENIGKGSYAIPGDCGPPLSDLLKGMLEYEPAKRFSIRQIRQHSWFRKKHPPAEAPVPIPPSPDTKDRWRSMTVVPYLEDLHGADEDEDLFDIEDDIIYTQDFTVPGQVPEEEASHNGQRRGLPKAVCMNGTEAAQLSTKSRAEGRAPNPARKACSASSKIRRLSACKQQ
T3 sequence (Q7RTN6 1-431 partner): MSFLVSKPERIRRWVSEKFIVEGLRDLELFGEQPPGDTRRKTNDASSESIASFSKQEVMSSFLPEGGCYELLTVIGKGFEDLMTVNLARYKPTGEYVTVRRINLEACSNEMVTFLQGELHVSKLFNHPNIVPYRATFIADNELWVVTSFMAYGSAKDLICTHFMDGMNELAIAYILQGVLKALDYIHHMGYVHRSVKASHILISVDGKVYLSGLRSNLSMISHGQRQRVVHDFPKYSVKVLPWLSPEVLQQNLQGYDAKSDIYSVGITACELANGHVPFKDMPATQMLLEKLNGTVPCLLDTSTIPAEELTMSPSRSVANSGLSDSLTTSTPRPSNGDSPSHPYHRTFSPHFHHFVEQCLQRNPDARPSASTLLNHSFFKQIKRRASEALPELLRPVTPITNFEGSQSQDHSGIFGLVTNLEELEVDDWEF
T3 sequence (Q9Y376 1-341 partner): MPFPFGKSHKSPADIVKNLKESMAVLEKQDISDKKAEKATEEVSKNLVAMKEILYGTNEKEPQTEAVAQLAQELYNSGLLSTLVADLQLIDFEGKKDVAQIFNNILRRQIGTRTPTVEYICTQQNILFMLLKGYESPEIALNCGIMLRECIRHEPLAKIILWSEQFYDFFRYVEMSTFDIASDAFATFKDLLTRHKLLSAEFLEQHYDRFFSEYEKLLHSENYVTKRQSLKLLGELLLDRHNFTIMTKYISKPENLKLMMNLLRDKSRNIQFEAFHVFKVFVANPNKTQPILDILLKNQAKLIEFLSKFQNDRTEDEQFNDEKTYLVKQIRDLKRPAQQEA
Particulars: read-out: residual kinase activity LKB1(h). Summed up:
as §1

On to `CNC(=O)c1cccc(C)c1Nc1nc(Nc2ccc(N3CCN(C4C5CC6CC4CC(O)(C6)C5)CC3)cc2OC)ncc1C(F)(F)F` (stereo not drawn) [SJP1602, 2-((2-((4-(4-((2s,5r)-5-hydroxyadamantan-2-yl)piperazin-1-yl)-2-methoxyphenyl)amino)-5-(trifluoromethyl)pyrimidin-4-yl)amino)-N,3-dimethylbenzamide], for which the values for the remaining activity at 1 µM at IKKε(h), at ZAP-70(h) and at LKB1(h) were 103%, 124% and 96%, respectively.
`CNC(=O)c1ccc(Nc2ncc(C(F)(F)F)c(NCc3nccnc3N(C)S(C)(=O)=O)n2)cc1` [VS-6063, Defactinib]: the remaining activity at 1 µM turned out to be 88% on IKKε(h), 139% on ZAP-70(h) and 89% at LKB1(h).
Regarding `CONC(=O)c1ccccc1Nc1cc(Nc2cc(C)nn2C(C)C)ncc1Cl` [GSK2256098], the results for the remaining activity at 1 µM on IKKε(h), on ZAP-70(h) and on LKB1(h) were 102%, 105% and 98%, respectively.
